Reference: patent publication US20080182851A1, “ACETYLENE DERIVATIVES AS STEAROYL COA DESATURASE INHIBITORS” (Glenmark Pharmaceuticals S.A., priority 2006, published 2008)
Like-named read-outs stand apart in the source and are kept apart here.

Biological target: T1, human SCD1 enzyme (Homo sapiens, UniProt O00767)
T1 sequence (O00767 1-359): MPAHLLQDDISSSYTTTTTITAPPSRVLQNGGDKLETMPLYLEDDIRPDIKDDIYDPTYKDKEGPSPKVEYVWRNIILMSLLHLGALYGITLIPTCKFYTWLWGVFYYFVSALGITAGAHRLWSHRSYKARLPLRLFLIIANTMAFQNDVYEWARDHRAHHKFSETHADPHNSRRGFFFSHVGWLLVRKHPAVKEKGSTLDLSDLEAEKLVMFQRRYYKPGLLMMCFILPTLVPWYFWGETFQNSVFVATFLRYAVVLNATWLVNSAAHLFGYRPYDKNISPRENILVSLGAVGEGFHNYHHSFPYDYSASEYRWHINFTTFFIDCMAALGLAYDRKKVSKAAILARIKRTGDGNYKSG
Assay: Tritiated water release assay (conversion of radiolabeled stearoyl-CoA to oleoyl-CoA)
Assay type: biochemical
Settings: 10 μM concentration of test compounds, microsomal SCD1, 3H stearoyl CoA, 37° C. 30 minutes, percent of control reaction
Procedure: The in-vitro activity of the compounds of the present invention against stearoyl coenzyme desaturase was determined by following conversion of radiolabeled-stearoyl-CoA to oleoyl-CoA using human SCD1 enzyme using a previously published assay procedure with some modifications (Barbara R Talamo and Konrad Bloch, Analytical Biochemistry, 1969, 29, 300-304). This assay protocol is only illustrative and is not meant to limit to the scope of the present invention.
In this assay the microsomal SCD1 enzyme desaturates its substrate, Stearoyl CoA (purchased from American Radiochemicals Ltd.) which is tritiated at C9 and C10 positions. Test compounds were dissolved in dimethylsulfoxide and tested at 10 μM final concentration. Before substrate addition, the test compound or standard reference compound (conjugated linoleic acid at 100 μM final concentration) were pre-incubated in reaction buffer with the enzyme for 10 minutes at 30° C. with shaking. Reaction buffer was prepared as described in literature (Obukowicz et al. JPET, 1998, 287, 157-166) except that the MgCl2, ATP (purchased from Sigma) and CoA (purchased from Sigma) concentrations were changed to 4.9 mM, 7.2 mM and 0.54 mM respectively. The desaturation reaction was initiated by addition of 0.5 μCi of ^3H stearoyl CoA and incubated at 37° C. for 30 minutes with shaking. A control reaction was set without any test compound/reference inhibitor to capture maximum enzymatic activity in the assay. Inhibition of enzyme activity was calculated as a percent of this control reaction giving maximum catalysis and the results are given in Table 5.
Table 5: Tritiated water release assay at 10 μM substrate concentration *Conjugated Linoleic acid was used as a reference standard

Row | Compound | inhibition at 10 µM (read-out: % Inhibition) | inhibition at 10 µM
1 | O=C(c1ccccc1C(F)(F)F)N1CCN(c2ncc(C#Cc3ccc(-n4cccc4)cc3)cn2)CC1 [Example 52] | 39% | –
2 | CC(=O)Oc1ccc(C#Cc2cnc(N3CCN(C(=O)c4ccccc4C(F)(F)F)CC3)s2)cc1 [Example 53, 4-(2-{2-[4-(2-Trifluoromethylbenzoyl)piperazino]-1,3-thiazol-5-yl}-1-ethynyl)phenyl acetate] | 47% | –
3 | CC(=O)Oc1ccc(C#Cc2ccc(N3CCC(O)(Cc4ccccc4)CC3)nn2)cc1 [Example 61, 4-{[6-(4-Benzyl-4-hydroxypiperidin-1-yl)pyridazin-3-yl]ethynyl}phenyl acetate] | 97% | –
4 | Oc1ccc(C#Cc2ccc(N3CCC(O)(Cc4ccccc4)CC3)nn2)cc1 [Example 62, 4-Benzyl-1-{6-[(4-hydroxyphenyl)ethynyl]pyridazin-3-yl}piperidin-4-ol] | 99% | –
5 | Oc1ccc(C#Cc2ccc(N3CCC(O)(Cc4ccccc4F)CC3)nn2)cc1 [Example 63, 4-(2-Fluorobenzyl)-1-{6-[(4-hydroxyphenyl)ethynyl]pyridazin-3-yl}piperidin-4-ol] | 94% | –
6 | CC(=O)Oc1ccc(C#Cc2ccc(N3CCC(O)(Cc4cc(Cl)ccc4Cl)CC3)nn2)cc1 [Example 64] | 87% | –
7 | Oc1ccc(C#Cc2ccc(N3CCC(O)(Cc4cc(Cl)ccc4Cl)CC3)nn2)cc1 [Example 65, 1-{6-[(4-Hydroxyphenyl)ethynyl]pyridazin-3-yl}-4-(2,5-dichlorobenzyl)piperidin-4-ol] | 93% | –
8 | CC(=O)Oc1ccc(C#Cc2ccc(N3CC(Oc4ccccc4F)C3)nn2)cc1 [Example 66] | 94% | –
9 | Oc1ccc(C#Cc2ccc(N3CC(Oc4ccccc4F)C3)nn2)cc1 [Example 67] | 96% | –
10 | Fc1ccccc1OC1CCN(c2ccc(C#Cc3ccc4c(c3)OCO4)cn2)CC1 [Example 72] | 38% | –
11 | Fc1ccccc1OC1CCN(c2ccc(C#Cc3cccnc3)cn2)CC1 [Example 73, 4-(2-Fluorophenoxy)-1-{5-[2-(3-pyridyl)-1-ethynyl]-2-pyridyl}piperidine] | 37% | –
12 | [O-][n+]1cccc(C#Cc2ccc(N3CCC(Oc4ccccc4F)CC3)nc2)c1 [Example 74] | 44% | –
13 | Oc1ccc(C#Cc2ccc(N3CCC(Oc4ccccc4F)CC3)nn2)cc1 [Example 76, 4-(2-{6-[4-(2-Fluorophenoxy)piperidino]-3-pyridazinyl}-1-ethynyl)phenol] | 100% | –
14 | Oc1ccc(C#Cc2ccc(N3CCC(Oc4ccccc4F)CC3)nn2)cc1 [Example 77] | – | 97%
15 | Fc1ccccc1OC1CCN(c2ccc(C#Cc3ccc(OCCN4CCOCC4)cc3)nn2)CC1 [Example 79] | 37% | –
16 | O=C(Oc1ccc(C#Cc2ccc(N3CCC(Oc4ccccc4F)CC3)nn2)cc1)c1ccco1 [Example 80, 4-{6-[4-(2-Fluorophenoxy)piperidin-1-yl]pyridazin-3-yl}ethynylphenyl-2-furoate] | 86% | –

Row | Compound | inhibition at 10 µM (read-out: % Inhibition) | inhibition at 10 µM
17 | Oc1ccc(C#Cc2ccc(N3CCC(Oc4ccc(Br)cc4F)CC3)nn2)cc1 [Example 81] | 95% | –
18 | Oc1ccc(C#Cc2ccc(N3CCC(Oc4ccccc4F)CC3)nn2)cc1F [Example 82] | 98% | –
19 | COc1cc(C#Cc2ccc(N3CCC(Oc4ccccc4F)CC3)nn2)ccc1O [Example 83, 2-Methoxy-4-{6-[4-(2-fluorophenoxy)piperidin-1-yl]pyridazin-3-yl}ethynylphenol] | 93% | –
20 | Fc1ccccc1OC1CCN(c2ccc(C#Cc3ccc(C(F)(F)F)cc3)nn2)CC1 [Example 84, 3-[4-(2-Fluorophenoxy)piperidino]-6-[2-(4-trifluoromethylphenyl)-1-ethynyl]pyridazine] | 37% | –
21 | Oc1cccc(C#Cc2ccc(N3CCC(Oc4ccccc4F)CC3)nn2)c1 [Example 86, 3-(2-{6-[4-(2-Fluorophenoxy)piperidino]-3-pyridazinyl}-1-ethynyl)phenol] | 100% | –
22 | N#Cc1ccccc1OC1CCN(c2ccc(C#Cc3cccc(O)c3)nn2)CC1 [Example 88] | 95% | –
23 | Fc1cccc(C#Cc2ccc(N3CCC(Oc4ccccc4C(F)(F)F)CC3)nn2)c1 [Example 89, 3-[2-(3-Fluorophenyl)-1-ethynyl]-6-[4-(2-trifluoromethylphenoxy)piperidino]pyridazine] | 82% | –
24 | Oc1cccc(C#Cc2ccc(N3CCC(Oc4ccccc4C(F)(F)F)CC3)nn2)c1 [Example 91, 3-(2-{6-[4-(2-Trifluoromethylphenoxy)piperidino]-3-pyridazinyl}-1-ethynyl)phenol] | 100% | –
25 | Oc1ccc(C#Cc2ccc(N3CCC(Oc4cc(Cl)ccc4Cl)CC3)nn2)cc1 [Example 93, 4-[{6-[4-(2,5-Dichlorophenoxy)piperidin-1-yl]pyridazin-3-yl}ethynyl]phenol] | 96% | –
26 | COc1c(F)ccc(C#Cc2ccc(N3CCC(Oc4ccccc4F)CC3)nn2)c1F [Example 94, 3-[(2,4-Difluoro-3-methoxyphenyl)ethynyl]-6-[4-(2-fluorophenoxy)piperidin-1-yl]pyridazine] | 12% | –
27 | [O-][n+]1cccc(C#Cc2ccc(N3CCC(Oc4ccccc4F)CC3)nn2)c1 [Example 95] | 24% | –
28 | Cc1cccc(C#Cc2cnc(N3CCC(Oc4ccccc4F)CC3)nc2)c1 [Example 97] | 36% | –
29 | Oc1cccc(C#Cc2cnc(N3CCC(Oc4ccccc4F)CC3)nc2)c1 [Example 98] | 95% | –
30 | CC(=O)Oc1ccc(C#Cc2ccc(NCCOc3ccccc3F)nn2)cc1 [Example 99] | 55% | –
31 | Oc1ccc(C#Cc2ccc(NCCOc3ccccc3F)nn2)cc1 [Example 100] | 63% | –

Continued, in another order:

Row | inhibition at 10 µM (read-out: % Inhibition) | Compound | inhibition at 10 µM
32 | 47% | N#Cc1cccc(C#Cc2ccc(N3CCN(C(=O)C4CCCC4)CC3)nn2)c1 [Example 54, 3-({6-[4-(Cyclopentylcarbonyl)piperazin-1-yl]pyridazin-3-yl}ethynyl)benzonitrile] | –
33 | 60% | Oc1cccc(C#Cc2ccc(N3CCN(CC4CC4)CC3)nn2)c1 [Example 55, 3-({6-[4-(Cyclopropylmethyl)piperazin-1-yl]pyridazin-3-yl}ethynyl)phenol] | –
34 | 92% | CC(=O)Oc1cccc(C#Cc2ccc(N3CCN(CC4CCCCC4)CC3)nn2)c1 [Example 56] | –
35 | 96% | Oc1cccc(C#Cc2ccc(N3CCN(CC4CCCCC4)CC3)nn2)c1 [Example 57, 3-({6-[4-(Cyclohexylmethyl)piperazin-1-yl]pyridazin-3-yl}ethynyl)phenol] | –
36 | 6% | Fc1ccccc1CN1CCN(c2ccc(C#CC3CCCCO3)nn2)CC1 (stereo not drawn) [Example 58] | –
37 | 95% | Oc1cccc(C#Cc2ccc(N3CCN(Cc4ccccc4F)CC3)nn2)c1 [Example 60, 3-({6-[4-(2-Fluorobenzyl)piperazin-1-yl]pyridazin-3-yl}ethynyl)phenol] | –
38 | 88% | CC(=O)Oc1ccc(C#Cc2ccc(N3CCC(Oc4ccccc4F)CC3)nn2)cc1 [Example 75, 4-[{6-[4-(2-Fluorophenoxy)piperidin-1-yl]pyridazin-3-yl}ethynyl]phenyl acetate] | –
39 | 43% | Fc1ccccc1OC1CCN(c2ccc(C#Cc3ccc(OCCN4CCCCC4)cc3)nn2)CC1 [Example 78] | –
40 | 97% | CC(=O)Oc1cccc(C#Cc2ccc(N3CCC(Oc4ccccc4F)CC3)nn2)c1 [Example 85] | –
41 | 27% | CC(C)(C)C(=O)Oc1cccc(C#Cc2ccc(N3CCC(Oc4ccccc4F)CC3)nn2)c1 [Example 87, 3-[{6-[4-(2-Fluorophenoxy)piperidin-1-yl]pyridazin-3-yl}ethynyl]phenyl pivalate] | –
42 | 95% | CC(=O)Oc1cccc(C#Cc2ccc(N3CCC(Oc4ccccc4C(F)(F)F)CC3)nn2)c1 [Example 90, 3-(2-{6-[4-(2-Trifluoromethylphenoxy)piperidino]-3-pyridazinyl}-1-ethynyl)phenyl acetate] | –
43 | 97% | CC(=O)Oc1ccc(C#Cc2ccc(N3CCC(Oc4cc(Cl)ccc4Cl)CC3)nn2)cc1 [Example 92, 4-[{6-[4-(2,5-Dichlorophenoxy)piperidin-1-yl]pyridazin-3-yl}ethynyl]phenyl acetate] | –
44 | 30% | NC(=O)c1cccc(C#Cc2ccc(N3CCC(Oc4cccnc4)CC3)nn2)c1 [Example 96] | –
45 | 82% | CC(=O)Oc1ccc(C#Cc2ccc(N3CCC(Nc4ccccc4F)CC3)nn2)cc1 [Example 101] | –
